Legend:
[1] = tested on: H630 p53 mutant colorectal cancer cell; assay: Western blot of AREG protein in H630 p53 mutant lysates after chemotherapy; type: cell-based, human; conditions: 48 hour treatment, two separate experiments
Method: FIG. 4 illustrates analysis of AREG protein 14, expression in H630 p53 mutant colorectal cancer cell lysates following a 48 hour CPT11 treatment. Western blots were probed using an anti-amphiregulin antibody. […] HCT 116, RKO, HT 29 and H630 are human colorectal carcinoma cell lines. After different time exposure to chemotherapy the cells were harvested, and washed in 1×PBS. The cell pellet was then lysed in a suitable amount of 1×RIPA lysis buffer (150 mM NaCl, 10 mM Tris at pH 7.2, 0.1% SDS, 1.0% triton X-100 and 5 mM.EDTA) supplemented with protease inhibitors. The cell lysate was briefly vortexed, incubated on ice for 10 min and then centrifuged at 12,000 rpm to remove cell debris. Following centrifugation, the lysate supernatant was removed to a fresh eppendorf tube. Protein concentrations were assayed using the BCA Protein Assay (Pierce) according to the manufacturer's instructions. The absorbance of each sample at 620 nm was assayed using a microplate reader. A standard BSA curve was plotted for each experiment and the protein concentration of each sample calculated. To each sample an equal volume of 5× Western sample buffer and 10% of the final volume of β-mercaptoethanol (Sigma) was added. […] Protein bands were detected by exposure to autoradiograph which was subsequently developed. […]

HCT116 cells = assay: MTT assay, HCT116 cell proliferation; type: cell-based, human; conditions: siRNA 10 nM, CPT-11 3.5 μM, 48 hr, compared to untreated, mock, control siRNA
Method: FIG. 8 illustrates HCT116 cell proliferation following AREG/HB-EGF silencing by siRNA and/or Chemotherapy treatment. Cells were transfected with AREG siRNA (10 nM), HB-EGF siRNA (10 nM) or a control siRNA (10 nM). […] Cell proliferation was analysed by MTT assay 48 hr after transfection/chemotherapy
FIG. 28 illustrates HCT116 cell proliferation after treatment with AREG antibody. Cell proliferation was analysed by MTT assay 48 hr after treatment.
FIG. 30 illustrates HCT116 cell proliferation after treatment with AREG antibody. Cell proliferation was analysed by MTT assay 48 hr after treatment.
FIG. 31 illustrates HCT116 cell proliferation after treatment with AREG antibody. Cell proliferation was analysed by MTT assay 48 hr after treatment
FIG. 33 illustrates HCT116 cell proliferation following HB-EGF silencing by siRNA and/or treatment with Anti AREG antibodies (6E11 1E92D8 & 6E11 1E9 106). Cells were transfected with HB-EGF siRNA (50 nM) or a control siRNA (50 nM). Cell proliferation was analysed by MTT assay 72 hr after transfection. […]
Cell viability was assessed by 3-(4,5-dimethylthiazol-2-yl)-2,5-diphenyltetrazolium bromide (MTT, Sigma) assay (Mosmann, T. 1983. J. Immunol. Methods 65:55-63). […] Cell viability was determined by reading the absorbance of each well at 570 nm using a microplate reader (Tecan Sunrise, Biorad, UK).

CCc1c2c(nc3ccc(OC(=O)N4CCC(N5CCCCC5)CC4)cc13)-c1cc3c(c(=O)n1C2)COC(=O)[C@]3(O)CC [CPT-11, irinotecan]
AREG protein expression (western blot) [1]: Enhanced AREG expression
effect on cell viability (MTT) (HCT116 cells): no significant effect

Reference: patent US20100111965A1, “COMBINATION THERAPY” (FUSION ANTIBODIES LIMITED, priority 2006, published 2010)
